Several values for one entry are separate records, joined by “and”; a condition that tells them apart may be missing. Equal values may be shown once. Activity calls are given as the source filed them.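 The calls were made as follows: active = compounds giving half or more protection of infected cells from virus-caused growth loss, again on retest; inactive = the rest.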
System: CEM cells HIV-1 protection, formazan growth assay
Test: NCI AIDS Antiviral Assay
Settings: for IC50: measured here: growth of uninfected CEM cells
Summary of the method: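 Human CEM cells, uninfected and HIV-1-infected, received five drug concentrations, and growth was read by soluble formazan assay. Compounds giving at least 50% protection were retested; reproducible 100% protection defined confirmed active.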

For `O=c1[nH]cnc2c1ccn2C1OC(CO)C(O)C1O` (stereo not drawn), the EC50 was greater than 20 µM and the IC50 was 2.04 µM.
Compound `NC(CC(O)(c1ccccc1)c1ccccc1)c1ccccc1S` (stereo not drawn) has an EC50 greater than 200 µM.
Compound `CCOC(=O)C(NC(=O)CC(C)C)(N1CCN(c2cc3c(cc2F)c(=O)c(C(=O)O)cn3C2CC2)CC1)C(F)(F)F` (stereo not drawn) has an EC50 greater than 200 µM and an IC50 of 1.91 µM.
Compound `O=C(c1ccccc1)c1c(-c2ccccc2)sc2nc3ccccc3nc12` has an EC50 greater than 27.5 µM and an IC50 greater than 27.5 µM.
For `CCOP(=O)(CN1CCNCCNCC1)OCC`, the EC50 was greater than 200 µM and the IC50 was greater than 200 µM.
Compound `N#CC1C(=O)SC2c3ccccc3C(=O)c3ccccc3C12` (stereo not drawn) has an EC50 greater than 200 µM and an IC50 of 132 µM.
`C=C1CC2CCCC12C=O` (stereo not drawn) showed an EC50 greater than 263 µM and an IC50 of 145 µM.
With `O=S(=O)(c1ccccc1)C1(Sc2ccccc2)CC(Br)[C@@H](Br)C1` (stereo partly drawn) the EC50 was greater than 15.1 µM and the IC50 was greater than 15.1 µM.
Work on `CN1C(=O)NC2(O)c3ccccc3C(=O)C12O` (stereo not drawn) yielded an EC50 greater than 1070 µM and an IC50 greater than 1070 µM.
Compound `O=C(NNCc1ccccc1O)c1ccccc1O` has an EC50 greater than 200 µM and an IC50 of 2.88 µM.
`C=C/C(C)=C/[C@H](C)C(=O)C[C@H](O)CC1CC(=O)NC(=O)C1` was tested, and the outcome was “inactive”.
`Cc1cccc(/C=N/NC(=S)N2CCCCCC2)n1` showed an EC50 greater than 200 µM and an IC50 of 0.0631 µM.
Work on `CC(=O)Nc1ccc(/C=C2\C=Cc3ccccc32)cc1` yielded an EC50 greater than 20 µM and an IC50 of 13.2 µM.
In the case of `O=C1OCCc2c1[nH]c1ccccc21`, the EC50 is reported as greater than 363 µM and the IC50 is reported as 219 µM.
With `C=CC1(C)CN(Cc2ccccc2)C(C(=O)OCC)O1` (stereo not drawn) the EC50 was greater than 26.3 µM and the IC50 was greater than 26.3 µM.
In the case of `COC1N(C2CC(F)C(CO)O2)C(=O)NC(=O)C1(C)I` (stereo not drawn), the EC50 is reported as 0.00339 µM, the outcome is reported as “active” and the IC50 is reported as 57.5 µM and 6.17 µM.
`Cc1cc(Cl)cc2c1NC(=O)C2(O)CC(=O)c1ccco1` (stereo not drawn) was tested, and the EC50 was greater than 117 µM and the IC50 was 63.1 µM.
Compound `CCCC(O)c1cn(C(NC(=O)c2ccccc2)P(=O)(OCC)OCC)nn1` (stereo not drawn) has an EC50 greater than 200 µM and an IC50 greater than 200 µM.
`COC(=O)c1cc(C(=O)OC)c(C/C(=N/NC(=O)C[N+](C)(C)C)C(=O)Nc2cccc(C(F)(F)F)c2)nc1C/C(=N/NC(=O)C[N+](C)(C)C)C(=O)Nc1cccc(C(F)(F)F)c1` gave an EC50 greater than 200 µM and an IC50 of 105 µM.
Compound `O=C1CCN2CCCC1C2` (stereo not drawn) has an EC50 greater than 1410 µM and an IC50 of 1290 µM.
In the case of `N[C@H]1CCc2c1nc1c(c2-c2ccccc2)CC[C@@H]1N`, the EC50 is reported as greater than 200 µM and the IC50 is reported as 83.2 µM.
`Cc1cc(Cl)ccc1C1OC(=O)c2c1ccc1ccccc21` (stereo not drawn) was tested, and the EC50 was greater than 23.4 µM and the IC50 was greater than 23.4 µM.
`O=C1C(Cl)C(c2ccc(Cl)cc2)N1n1cnc2ccccc2c1=O` (stereo not drawn) gave an EC50 greater than 18.6 µM and an IC50 greater than 18.6 µM.
For `COc1ccc(C23OC2Oc2cc(OC4CCCCO4)ccc2C3=O)cc1` (stereo not drawn), the EC50 was greater than 70.8 µM and the IC50 was 45.7 µM.
In the case of `CN(C)C(=S)/N=c1\ssc(=S)n1-c1ccccc1`, the outcome is reported as “inactive”.
`NC(=O)NC(=O)C(Cc1ccc(Cl)cc1)c1ccccc1` (stereo not drawn) showed an EC50 greater than 85.1 µM and an IC50 greater than 85.1 µM.
Compound `Cc1csc(=S)n1OC(=O)NC1CCCCC1` has an EC50 greater than 912 µM and an IC50 of 45.7 µM.
`CCOC(=O)C1C(=O)CC1(C)C` (stereo not drawn) showed an EC50 greater than 200 µM and an IC50 greater than 200 µM.
Work on `CNS(=O)(=O)NN(C)S(=O)(=O)c1ccc(Br)cc1` yielded an EC50 greater than 132 µM and an IC50 greater than 132 µM.
For `O=C1c2ccccc2C(=O)c2c(O)c(NCCNCCO)cc(O)c21`, the outcome was “inactive”.
`Clc1ccc(NC2=NCCN=C(Nc3ccc(Cl)cc3)SS2)cc1` gave an EC50 greater than 200 µM and an IC50 of 22.9 µM.
With `CCOC(=O)c1c(-c2ccc(OC)cc2)ccn1C` the EC50 was greater than 200 µM and the IC50 was 28.8 µM.
With `O=S(O)c1cc(Cl)cc(Cl)c1OCc1ccccc1` the outcome was “inactive”.
Compound `CC(=O)c1ccc(Br)cc1NC1=CC(=O)c2ncccc2C1=O` has an EC50 greater than 200 µM and an IC50 of 4.68 µM.
With `CC1(C)CC(/C=C2/OC(=O)c3ccccc32)=C(C(N)=O)C(=O)O1` the EC50 was greater than 83.2 µM and the IC50 was greater than 83.2 µM.
`Nc1ncnc2c1ncn2C1CCCCC1O` (stereo not drawn) gave an EC50 greater than 58.9 µM and an IC50 greater than 58.9 µM.
In the case of `COC(=O)C1CC2(c3ccccc3)C(=O)c3ccccc3N2O1` (stereo not drawn), the outcome is reported as “inactive”.
`O=C1c2cccc3cccc(c23)C(=O)N1CCCN1C(=O)c2cccc3cccc(c23)C1=O` gave an EC50 greater than 200 µM and an IC50 of 110 µM.
In the case of `N#CCN1C(=O)c2cc([N+](=O)[O-])cc3cc([N+](=O)[O-])cc(c23)C1=O`, the outcome is reported as “inactive”.
`Cn1cc(NC(=O)c2cc(NC(=O)CCCCCC(=O)Nc3cc(C(=O)Nc4cc(C(=O)NCCC(=N)N)n(C)c4)n(C)c3)cn2C)cc1C(=O)NCCC(=N)N` showed an EC50 of 53.7 µM and an IC50 of 67.6 µM.
`COC(=O)c1nn(-c2ccccc2)c(=O)cc1N=[N+]=[N-]` gave an EC50 greater than 200 µM and an IC50 of 112 µM.
`C=CCOCn1cnc2c(=O)[nH]c(N)nc21` gave an EC50 greater than 200 µM and an IC50 greater than 200 µM.
`Cc1cc(Cc2c(F)c(F)c(Cc3cc(C)no3)c(F)c2F)on1` was tested, and the EC50 was greater than 100 µM and the IC50 was greater than 100 µM.
`c1ccc2c(NCCCCCCCCNc3c4ccccc4nc4ccccc34)c3ccccc3nc2c1` was tested, and the outcome was “inactive”.
For `CCO/N=C(/CC)c1ccc(Br)s1`, the EC50 was greater than 200 µM and the IC50 was 102 µM.
